From patent US8937096B2, “Use of benzo-fused heterocyle sulfamide derivatives for the treatment of mania and bipolar disorder” (priority 2005, dated 2015)
Where two headings read alike, the source gives them in different places.

Assays:
[1] = system: LTG-resistant amygdala kindled seizures; test: Lamotrigine Resistant Amygdala Kindled Rat Model (Interruption of Kindled State); assay type: in vivo; details: 75 mg/kg i.p.
Procedure: Amygdala kindling is less severe than hippocampal kindling, such that many AEDs are effective against amygdala kindled seizures, but are ineffective against hippocampal kindled seizures. […] Fifteen minutes after the last stimulation, a single dose of vehicle or test compound was administered i.p. After 15 min, each rat was then stimulated every 30 min for 3 to 4 h. After each stimulation, individual seizure scores and after-discharge durations were recorded. The group mean±SEM was calculated for each parameter.

CH3/HeJ mice = test: Tail Suspension Test (Acute); assay type: in vivo, mouse; details: for Immobility Emax % of C / Mobility Emax % of C: 7-min session; for ED50: Mus musculus, po, 7 min
Procedure: In the tail suspension test (TST) for evaluating compounds for anti-depressant activity, mice are suspended by their tails to a metal or plastic rod using clip or scotch tape. The test is usually quite short, 5-7 min, and the amount of time the mice spend immobile is recorded either manually or with an automated device. Agents which have antidepressant activity, decrease the duration of immobility of mice in this test.
The basic apparatus for the tail suspension assay consisted of a yellow plastic chamber (91×45×10 cm) divided for four arenas 25, 20, 20 and 25 cm wide separated by yellow plastic walls 0.75 cm thick. Mice were suspended by their tails using a rubber clip (7 cm long) attached to the plastic rod that was placed on the top of a testing chamber half way through its deep dimension. Each experimental session was videotaped and analyzed for four animals in the real time by computer software (“Depression Scan” Clever Sys Inc.). The computer justification of immobility was calibrated with the use of animals dosed with lorazepam while justification of movement was calibrated with the high dose of desipramine treated animals. […] The settings were adjusted separately for dark (CH3/HeJ and C57BI/6J strains) and white mice (Balb/cJ and A/J strains). A yellow background was used for dark mice and a blue background was used to record movements of white mice.
The ability of a test compound to decrease the duration of immobility, or increase mobility was measured using the TST procedure described above.
Data were analyzed using GraphPad Prism software (GraphPad Software, Inc. San Diego, Calif.). For the comparison of the effect of different doses for various drugs on immobility in the TST one-way analyses of variance (ANOVA) were used followed by Dunnett's multiple comparison test. […] The ED50 and Emax values were compared using two-way ANOVA and Bonferroni post-hoc test.
Positive controls included duloxetine (DLX), venlafaxine (VLX) and desipramine (DMI) which were dissolved in 0.5% methylcellulose and lorazepam (LOR) which was suspended in 0.5% of methylcellulose in water by sonication. All drugs and vehicles were administered orally (p.o.) by gavage in a volume of 10 mL/kg.
The mice were ordered 5 weeks old and at the beginning of experiment their weight was 20±5 g. Animals were housed in groups of four in plastic cages at an ambient temperature of 21° C. to 23° C. with an automated 12/12 hours light/dark cycle and access to water and a commercial rodent food ad libitum.
Each experiment consisted of seven treatment groups with four animals per group. A total of 28 animals per experiment were used. Every two consecutive experiments (1 & 2, 3 & 4, 5 & 6 and 7 & 8) were exact replicas of each other. […] One treatment group of four animals in each experiment was a vehicle treated group. In addition to the vehicle treated group, the effects of DMI at 6 mg/kg, 12 mg/kg, 30 mg/kg, 60 mg/kg and 120 mg/kg and LOR at 5 mg/kg were tested in experiments 1 and 2. […] In experiments 5 and 6 the effects of DLX at 6 mg/kg, 12 mg/kg, 30 mg/kg, 60 mg/kg, 120 mg/kg and LOR at 5 mg/kg were tested.

Sprague Dawley rats = test: Forced Swim Test (Acute); assay type: in vivo, rat
Procedure: The Forced Swim test (FST) is a commonly used procedure to screen compounds for possible antidepressant properties. This test is also known as the behavioral despair test. Rodents placed in […] tanks filled with water present a wide variety of escape or immobility behaviors. Antidepressant drugs from different classes markedly increase escape behaviors and/or decrease latency or duration of immobility.
Venlafaxine and desipramine were dissolved in water. All drugs and their vehicles were administered orally (p.o.) by gavage in a volume of 5 mL/kg.
Male Sprague Dawley rats (140 to 160 g) from Charles River Laboratories Wilmington, Mass. were used. The animals went through a five-day quarantine period before being subjected to the experimental procedure.
Animals were housed in groups of four in plastic cages at an ambient temperature of 21° C. to 23° C. with an automated 12 hour light/dark cycle and access to water and commercial rodent food ad libitum. Animals were not handled more than for the routine bedding change prior to pre-test swim session.
Each experiment consisted of seven treatment groups with n=4 animals per group. A total of 28 animals per experiment were used. Two consecutive experiments (1 and 2, 3 and 4, and 5 and 6) were exact replicas of each other. […] One treatment group of n=4 animals in each experiment was a vehicle treated group. […] In experiments 5 and 6 the effects of venlafaxine and maprotyline at 12 mg/kg, 30 mg/kg, and 60 mg/kg were tested.
The basic apparatus consisted of a cylinder (46 cm tall×˜20 cm diameter) filled with water to 30 cm deep, at a temperature of 25±1° C. The automated version of the FST was used to perform the experiments. Plumbing for automatic filling and emptying water connected the four cylinders. Cylinders were placed in the dividing chambers 25 cm wide to separate animals visually. Each 5-minute experimental session was videotaped and analyzed in real time by computer software (Clever Systems, Inc.) for four animals at a time. The immobility, swimming, climbing and escape times were recorded by the software. The four activities are defined as follow. Immobility: the animal floats motionlessly or makes only those movements necessary to keep its head above water; Climb: the animal vigorously moves vertically while scratching the wall around the cylinder; Swim: the animal moves horizontally around in the cylinder more than necessary to keep its head above water; and Escape: sum of all vigorous active movements.
The ability of a test compound to decrease the duration or frequency of immobility, or changes in swimming, climbing and escape times, was measured using the FST procedure described above. […] The analysis of the results in the studies described was focused on the immobility time during 5-minute test session.
There were two swim sessions in each experiment. First, a pre-test swim session for 15 minutes was performed. Following 48 hours later was a test session of 5-minute duration. Upon completion of a swim session, each animal was placed under a heat lamp in a cage with soft bedding for approximately 15 minutes to prevent hypothermia.
Animals were pre-treated with a vehicle or test compound after completing the pre-test swim session, then 24 hours later and then shortly prior to the 5-minute test session; i.e., three injections were given to each animal between the two swim sessions that occurred on 3 consecutive days.
Data were analyzed using GraphPad Prism software (GraphPad Software, Inc. San Diego, Calif.). For the comparison of the effect of different doses for various drugs on immobility in the FST one-way ANOVA was used followed by Dunnett's multiple comparison test. […] The ED50 and Emax values were statistically compared using two-tail t-test.

Compound	after-discharge duration reduced [1] [%]	rats exhibiting ataxia and sedation ([1]; n=9)	rats protected ([1]; n=9)	after-discharge duration after treatment ([1]; from 73 sec) [s]	seizure score after treatment ([1]; reduced from a 5)	doses at which effects were statistically significant vs vehicle (CH3/HeJ mice; p.o., CH3/HeJ mice)	Immobility Emax % of C (CH3/HeJ mice; p.o., CH3/HeJ mice)	Mobility Emax % of C (CH3/HeJ mice; p.o., CH3/HeJ mice)	Immobility Emax % of C (CH3/HeJ mice; p.o., CH3/HeJ mice, listed as Cmpd #8)	immobility time and mobility time (CH3/HeJ mice; p.o., CH3/HeJ mice, 7-min testing session)	effect on immobility vs control (Sprague Dawley rats; 30 mg/kg p.o., large variability between individual rats)	Emax (immobility) in the FST (Sprague Dawley rats; p.o.) [s]	doses at which effect on immobility was statistically significant vs vehicle (Sprague Dawley rats; p.o.)	ED50 (CH3/HeJ mice; read-out: Immobility ED50) [mg/kg]	ED50 (CH3/HeJ mice; read-out: Mobility ED50) [mg/kg]
NS(=O)(=O)NC[C@H]1COc2cc(Cl)ccc2O1 [Compound #8, (2S)-(−)-N-(6-Chloro-2,3-dihydro-benzo[1,4]dioxin-2-ylmethyl)-sulfamide]	86	Four of the nine	Eight out of nine	10	0.8	12 mg/kg, 60 mg/kg, and 120 mg/kg	22.2±6.1 % of C	95.6 % of C	22.2 % of C	decreased immobility time and increased mobility time	not significantly different from control	67.0 ± 11.6	12 mg/kg, 60 mg/kg, and 120 mg/kg		
COc1ccc(C(CN(C)C)C2(O)CCCCC2)cc1 (stereo not drawn) [Venlafaxine, venlafaxine, reference compound]							63.7 % of C	412.6 % of C					30 mg/kg and 60 mg/kg	25	21.1
